Measured values as given in PubChem BioAssay AID1259407 (Chemical Carcinogenesis Research Information System (CCRIS), 2018).
Calls of active or inactive are those of the source. How the calls were made is not given here.

Tested on: CCRIS mutagenicity, Ames/micronucleus/aberration tests
Test: CCRIS mutagenicity studies
[1] = Test System: AMES SALMONELLA TYPHIMURIUM, Strain/Indicator: TA100, Metabolic Activation: NONE, Method: STANDARD PLATE
[2] = Test System: AMES SALMONELLA TYPHIMURIUM, Strain/Indicator: TA1535, Metabolic Activation: NONE, Method: STANDARD PLATE

## [Cl][Cd][Cl]
End Point: IN VITRO MICRONUCLEUS, Test System: CHL/IU CELLS, Metabolic Activation: NONE
  mutagenic call: active; positive
End Point: IN VITRO MICRONUCLEUS, Test System: HAMSTER V79 CELLS, Metabolic Activation: NONE
  mutagenic call: active; positive
End Point: IN VITRO MICRONUCLEUS, Test System: HUMAN PERIPHERAL LYMPHOCYTES, Metabolic Activation: NONE, Method: FISH (CENTROMERIC SIGNAL CONTENT)
  mutagenic call: active; positive
Test System: AMES SALMONELLA TYPHIMURIUM, Strain/Indicator: TA97, Metabolic Activation: NONE, Method: STANDARD PLATE
  mutagenic call: inactive; negative
Test System: AMES SALMONELLA TYPHIMURIUM, Strain/Indicator: TA97, Metabolic Activation: RAT, LIVER, S-9, AROCLOR 1254, Method: STANDARD PLATE
  mutagenic call: inactive; negative
Test System: AMES SALMONELLA TYPHIMURIUM, Strain/Indicator: TA98, Metabolic Activation: NONE, Method: STANDARD PLATE
  mutagenic call: inactive; negative
Test System: AMES SALMONELLA TYPHIMURIUM, Strain/Indicator: TA98, Metabolic Activation: RAT, LIVER, S-9, AROCLOR 1254, Method: STANDARD PLATE
  mutagenic call: inactive; negative
Test System: AMES SALMONELLA TYPHIMURIUM, Strain/Indicator: TA98, Metabolic Activation: S-9, Method: STANDARD PLATE
  mutagenic call: inactive; negative
[1]
  mutagenic call: inactive; negative
Test System: AMES SALMONELLA TYPHIMURIUM, Strain/Indicator: TA100, Metabolic Activation: RAT, LIVER, S-9, AROCLOR 1254, Method: STANDARD PLATE
  mutagenic call: inactive; negative
[2]
  mutagenic call: inactive; negative
Test System: AMES SALMONELLA TYPHIMURIUM, Strain/Indicator: TA1535, Metabolic Activation: S-9, Method: STANDARD PLATE
  mutagenic call: inactive; negative
Test System: CHINESE HAMSTER V-79, Strain/Indicator: SP5 V-79 (HPRT)/6-THIOGUANINE, Metabolic Activation: NONE, Method: STANDARD PLATE
  mutagenic call: inactive; negative
Test System: CHINESE HAMSTER V-79, Strain/Indicator: SPD8 V-79 (HPRT)/6-THIOGUANINE, Metabolic Activation: NONE, Method: STANDARD PLATE
  mutagenic call: active; positive
Test System: CHINESE HAMSTER V-79 CELLS, Strain/Indicator: V-79 CELLS (HPRT)/6-THIOGUANINE, Metabolic Activation: NONE, Method: PREINCUBATION
  mutagenic call: inactive; negative
Test System: Chinese hamster lung cells, Strain/Indicator: V-79/HPRT/6-Thioguanidine, Metabolic Activation: None, Method: Standard Plate
  mutagenic call: active; positive
Test System: E. COLI, Strain/Indicator: WP2 UVRA, Metabolic Activation: NONE, Method: SPOT TEST
  mutagenic call: active; positive
Test System: E. COLI, Strain/Indicator: WP2 UVRA, Metabolic Activation: NONE, Method: STANDARD PLATE
  mutagenic call: active; positive
Test System: Rat lymphocytes, Strain/Indicator: Kumin/Male/HPRT/6-Thioguanidine, Metabolic Activation: None, Method: Intraperitoneal injection, blood collection 1, 6, and 12 d later
  mutagenic call: active; positive
Test System: UDS HAMSTER TRACHEAL EPITHELIAL CELLS, Strain/Indicator: THY INCORP (NON-S-PHASE), Metabolic Activation: NONE, Method: AUTORADIOGRAPHY
  mutagenic call: inactive; negative
Test System: UDS RAT TRACHEAL EPITHELIAL CELLS, Strain/Indicator: THY INCORP (NON-S-PHASE), Metabolic Activation: NONE, Method: AUTORADIOGRAPHY
  mutagenic call: active; positive

## CC(Br)(CBr)COP(=O)(OCC(C)(Br)CBr)OCC(C)(Br)CBr (stereo unspecified)
Test System: AMES SALMONELLA TYPHIMURIUM, Strain/Indicator: TA100, Metabolic Activation: RAT, LIVER, MICROSOMES, PHENOBARBITAL, Method: PREINCUBATION
  mutagenic call: inactive; negative
Test System: AMES SALMONELLA TYPHIMURIUM, Strain/Indicator: TA100, Metabolic Activation: RAT, LIVER, MICROSOMES, Method: PREINCUBATION
  mutagenic call: inactive; negative

## CC(C)(O)[C@H]1CC[C@@](C)([C@H]2[C@@H](O)C[C@@]3(C)[C@@H]4CC[C@H]5C(C)(C)C(=O)CC[C@@]56C[C@@]46CC[C@]23C)O1
End Point: IN VITRO MICRONUCLEUS, Test System: HUMAN PERIPHERAL LYMPHOCYTES, Metabolic Activation: NONE
  mutagenic call: inactive; negative

## Nc1ncn([C@@H]2O[C@H](CO)[C@@H](O)[C@H]2O)c(=O)n1
End Point: IN VITRO CHROMOSOMAL ABERRATIONS, Test System: CHO CELLS (K1), Metabolic Activation: NONE
  mutagenic call: active; positive
End Point: IN VITRO CHROMOSOMAL ABERRATIONS, Test System: CHO CELLS (XRS-5), Metabolic Activation: NONE
  mutagenic call: active; positive
Test System: AMES SALMONELLA TYPHIMURIUM, Strain/Indicator: TA92, Metabolic Activation: NONE, Method: STANDARD PLATE
  mutagenic call: active; positive
Test System: AMES SALMONELLA TYPHIMURIUM, Strain/Indicator: TA98, Metabolic Activation: NONE, Method: FLUCTUATION (MICROTITER)
  mutagenic call: active; positive
[1]
  mutagenic call: active; positive
Test System: AMES SALMONELLA TYPHIMURIUM, Strain/Indicator: TA102, Metabolic Activation: NONE, Method: STANDARD PLATE
  mutagenic call: active; positive
Test System: AMES SALMONELLA TYPHIMURIUM, Strain/Indicator: TA104, Metabolic Activation: NONE, Method: STANDARD PLATE
  mutagenic call: active; positive
[2]
  mutagenic call: active; positive
Test System: AMES SALMONELLA TYPHIMURIUM, Strain/Indicator: TA1535, Metabolic Activation: RAT, LIVER, S-9, AROCLOR 1254, Method: STANDARD PLATE
  mutagenic call: active; positive
Test System: AMES SALMONELLA TYPHIMURIUM, Strain/Indicator: TA1537, Metabolic Activation: NONE, Method: FLUCTUATION (MICROTITER)
  mutagenic call: inactive; negative
Test System: AMES SALMONELLA TYPHIMURIUM, Strain/Indicator: TA2638, Metabolic Activation: NONE, Method: STANDARD PLATE
  mutagenic call: active; positive
Test System: AMES SALMONELLA TYPHIMURIUM, Strain/Indicator: TA2640, Metabolic Activation: NONE, Method: STANDARD PLATE
  mutagenic call: inactive; negative
Test System: AMES SALMONELLA TYPHIMURIUM, Strain/Indicator: TA7001, Metabolic Activation: NONE, Method: FLUCTUATION (MICROTITER)
  mutagenic call: inactive; negative
Test System: AMES SALMONELLA TYPHIMURIUM, Strain/Indicator: TA7002, Metabolic Activation: NONE, Method: FLUCTUATION (MICROTITER)
  mutagenic call: inactive; negative
Test System: AMES SALMONELLA TYPHIMURIUM, Strain/Indicator: TA7003, Metabolic Activation: NONE, Method: FLUCTUATION (MICROTITER)
  mutagenic call: inactive; negative
Test System: AMES SALMONELLA TYPHIMURIUM, Strain/Indicator: TA7004, Metabolic Activation: NONE, Method: FLUCTUATION (MICROTITER)
  mutagenic call: active; positive
Test System: AMES SALMONELLA TYPHIMURIUM, Strain/Indicator: TA7005, Metabolic Activation: NONE, Method: FLUCTUATION (MICROTITER)
  mutagenic call: inactive; negative
Test System: AMES SALMONELLA TYPHIMURIUM, Strain/Indicator: TA7006, Metabolic Activation: NONE, Method: FLUCTUATION (MICROTITER)
  mutagenic call: active; positive
Test System: CHINESE HAMSTER OVARY, Strain/Indicator: CHO-AS52/6-THIOGUANINE, Metabolic Activation: NONE
  mutagenic call: active; positive
Test System: MOUSE LYMPHOMA, Strain/Indicator: L5178Y (TK+/TK-), Metabolic Activation: RAT, LIVER, HEAT-DENATURED S-9, Method: SUSPENSION/PLATE
  mutagenic call: active; positive
Test System: MOUSE LYMPHOMA, Strain/Indicator: L5178Y (TK+/TK-), Metabolic Activation: RAT, LIVER, S-9, AROCLOR 1254, Method: SUSPENSION/PLATE
  mutagenic call: active; positive. reevaluation of results: inconclusive
Test System: MOUSE LYMPHOMA, Strain/Indicator: L5178Y (TK+/TK-), Metabolic Activation: RAT, LIVER, S-9, Method: SUSPENSION/PLATE
  mutagenic call: active; positive
